Measurements as given in patent US12497460B2, “Anti-MSR1 antibodies and methods of use thereof” (REGENERON PHARMACEUTICALS, INC., priority 2018, dated 2025).
Read-outs that look alike come from different tables or passages of the source. Marks after values point to notes of the source that are not given here.

Columns and labels:
[1] = tested on: Msr1^hu/hu ApoE^−/− mice, peritoneal cells; test: Ex vivo LPS-induced cytokine production by peritoneal cells after in vivo dosing; set-up: species or system mouse; settings: administered 2 hours before peritoneal cell isolation; ex vivo LPS
Procedure: To examine the anti-inflammatory effect of the anti-MSR1 antibody-steroid conjugates, an ex-vivo and in vivo LPS-induced inflammatory immune response model was performed.
Generation of a mouse inflammatory immune response model. Mice homozygously expressing human MSR1 extracellular domain in place of the mouse MSR1 extracellular domain and with a homozygous deletion of the ApoE gene were utilized (resulting mice referred to as Msr1^hu/hu ApoE^−/− mice).
(§1) Assay protocol for ex vivo LPS-induced responses. In ex vivo LPS challenge experiments, mice were intraperitoneally administered with 10 μL/g of anti-MSR1 antibody-steroid conjugates (H1H21234N-N297Q-LP13), isotype control steroid conjugate (Isotype control-LP13), unconjugated anti-MSR1 antibody (H1H21234N-N297Q) and isotype control antibodies at different time points (24, 48, and 72 hours) prior to harvesting the peritoneal cells from peritoneal cavity. […] All mice were sacrificed at 0 hour time point and peritoneal cells were obtained from the peritoneum by the peritoneal lavage technique. In brief, 5 mL of ice cold 1×PBS (ThermoFisher Scientific, Cat #20012027) containing 2% BSA (Gibco, Cat #A9576) and 0.6 mM EDTA (ThermoFisher Scientific, Cat #15575020) were injected into the peritoneal cavity using 27 g needle. […] The resuspended cells were plated at 500,000 cells per well in 24-well tissues culture plates and incubated with or without 10 ng/mL of LPS for 18 hours.
Measurement of cytokines at 18 hours post-LPS ex vivo challenge. Supernatants were collected into 96-well round bottom tissue culture plates at 18 hours post-ex vivo LPS challenge and stored at […] until further analysis. Cytokine concentrations in the supernatants were measured using a Proinflammatory Panel 1 (mouse) multiplex immunoassay kit (MesoScale Diagnostics, Cat #K15048D) according to manufacturer's instructions. Electrochemiluminescence was read on a Meso Scale Diagnostics SECTOR® instrument. Data analysis was performed using GraphPad Prism™ software. Statistical significance within the groups was determined by one-way Anova with Turkey's multiple comparison post-test (*p<0.01; **p<0.001; ***p<0.0001).

[2] = tested on: Msr1^hu/hu ApoE^−/− mice, peritoneal macrophages; test: LPS-mediated expression of CD80 on peritoneal macrophages (flow cytometry); type: in vivo, mouse; settings: administered 2 hours before
Procedure: as §1
Assay protocol for in vivo LPS-induced responses. In in vivo LPS challenge experiments, mice were intraperitoneally administered with 10 μL/g of decreasing concentrations of anti-MSR1 antibody-steroid conjugates (H1H21234N-N297Q-LP13) and isotype control steroid conjugate (Isotype control-N297Q-LP13) at 24 hours prior to in vivo LPS challenge. PBS and free steroid P4 were intraperitoneally injected at 2 hours prior to in vivo LPS challenge. At 0 hour time point, three large drops of blood (volume ˜ 100 μL) were collected from the maxillary vein of each mouse into serum gel separator tubes. The tubes were centrifuged at 2200-2500 rpm for 15 minutes, and the serum was collected into 96-well plates for subsequent measurement of cytokines. At 18 hours post in vivo LPS challenge, the peritoneal cells were obtained from periotenal cavity as aforementioned for subsequent flow cytometry analysis.
Analysis of expression of activation markers on peritoneal macrophages after LPS ex vivo challenge. Upon collection of supernatants for cytokine analysis, the plates were washed twice with 1×PBS w/o Ca^++/Mg2^++ (ThermoFisher Scientific, Cat #14190144), and the adherent peritoneal cells were harvested by addition of 250-300 μL of cold Macrophage Detachment Solution DXF (PromoCell, Cat #C41330) for 40 minutes. The detached cells were collected into 50-mL tubes and centrifuged at 350×g for 15 minutes. After two washes with 1×PBS supplemented with 2 mM EDTA, the cells were resuspended in Cell Staining Buffer (Biolegend, #420201) and plated at 1×10^6 cells per well in a 96-well V bottom plate. […] Data were analyzed using FlowJo (Tree Star).

[3] = tested on: LPS-induced IL-1β release in differentiated THP-1 cells; test: LPS-mediated IL-1β release assay; type: cell-based, human; settings: for IC50: Homo sapiens, 100 ng/ml LPS for 5 hours, read-out: IC50, inhibition of LPS-induced IL-1β secretion
Procedure: To test the anti-inflammatory properties of anti-MSR1 antibody-steroid conjugates in vitro, a lipopolysaccharide (LPS)-mediated IL-1β release assay was performed. For the assay, THP-1 cells were seeded onto 96 well plates at 40,000 cells/well in media containing RPMI supplemented with 10% FBS and pencillin/streptomycinin and differentiated with 200 nM Phorbol Myristate Acetate (PMA) for 3 days. After the 3-day differentiation period, three-fold serial dilutions of antibody drug conjugates, unconjugated antibodies, or free payloads in fresh media were added to the cells at final concentration ranging from 100 nM to 0.01 nM. Media alone served as a blank control. Subsequently at 24, 48, or 72 hours later, cells were treated with 100 ng/ml LPS (InVivoGen, Cat #tlrl-eklps) for 5 hours. The cell media was then collected, and IL-1β levels were measured using a V-PLEX Proinflammatory Panel 1 human kit (Meso Scale Diagnostics, Cat #15049D-2) as per manufacturer's instructions. Subsequently, the plate was read on a Meso Scale Diagnostics instrument.
IC50 values were determined from a four-parameter logistic equation over a 10-point response curve (GraphPad Prism). All IC50 values are expressed in M (molar) concentration. The IC50 values and IL-1β amount at the maximum concentration of antibody-steroid conjugates or controls are shown in Table 22 each of the time point tested.

hMSR1/ApoE-KO mice [4] = test: Anti-type II collagen antibody-induced arthritis (CAIA), clinical scores; type: in vivo, mouse
Procedure: An MSR1-non-cytotoxic antibody drug (ncADC) conjugate was tested in anti-type II collagen antibody-induced arthritis (CAIA) in vivo; cytokine detection in inflamed joints using Proinflammatory Panel 1 (mouse) Multiplex Immunoassay kit (MSD)
To further examine the anti-inflammatory effect of the anti-MSR1 Ab-steroid ncADC, the ncADC was evaluated in a collagen-antibody induced arthritis (CAIA) model in vivo. For the model, mice homozygously expressing human MSR1 extracellular domain and transmembrane domain in place of mouse MSR1 extracellular and transmembrane domains (humanized MSR1) and with a homozygous deletion of the ApoE gene (ApoE-KO) were utilized (resulting mice referred to as hMSR1/ApoE-KO mice).
(§2) To induce CAIA, hMSR1/ApoE-KO mice were intraperitoneally injected with an 8 mg/kg mixture of five anti-type II collagen mAbs (Chondrex, Cat #53100, Lot #180140) on day 0, followed by intraperitoneal administration with 50 μg lipopolysaccharide (LPS; 0111:B4; Chondrex, Cat #53100, Lot #180141) on day 3. Severity of the […] levels of arthritis was graded up to 13 days after mAb injection in each of the four limbs per mouse on a […]. The criteria for the grading were as follows: 0, normal; 1, mild redness and swelling of ankle/wrist or individual digits; 2, moderate redness and swelling of ankle/wrist; 3, severe redness and swelling of the entire paw including the digits; 4, maximal swelling in limbs involving multiple joints. The maximum value of the sum of the scores obtained from the four limbs of each mouse was 16. […] PBS, unconjugated anti-MSR1 Ab (H1H21234N-N297Q) and free steroid payload (P4-1), were intraperitoneally injected every other day or daily (referred to as P4-1 ED). All mice were sacrificed on day 13 and inflamed patella were collected for subsequent homogenization and cytokine detection.

hMSR1/ApoE-KO mice [5] = test: CAIA, pro-inflammatory cytokines in joint homogenates; type: in vivo, mouse
Procedure: as §2
Inflamed knee patella were collected in 2 mL microcentrifuge tubes containing two tungsten carbide beads (Qiagen, Cat #69997) and 500 μL of T-per buffer (Thermo Scientific, Cat #78510, Lot #QF217759) containing protease inhibitor cocktail and 0.5M EDTA (Thermo Scientific, Cat #78444, Lot #RF231047). Tissues were disrupted at the frequency of 30s^−1 for 10 minutes using Qiagen Tissue Lyser II, centrifuged at 14,000 rpm for 7 minutes, and then supernatants were collected without disturbing the pellet. Cytokine concentrations in the supernatants were measured using a Proinflammatory Panel 1 (mouse) multiplex immunoassay kit (MesoScale Discovery, Cat #K15048D) according to the manufacturer's instructions. In brief, 50 μL/well of calibrators and samples (diluted in Diluent 41) were added to the plates pre-coated with capture antibodies and incubated at room temperature while shaking at 700 rpm for 2 hours. The plates were then washed 3 times with 1×PBS containing 0.05% (w/v) Tween-20, followed by the addition of 25 μL of Detection Antibody Solution diluted in Diluent 45. After 2-hour incubation at room temperature while shaking, the plates were washed 3 times, and 150 μL of 2× Read Buffer was added to each well. Electrochemiluminescence was immediately read on MSD Spector© instrument. Cytokine concentrations were normalized per total protein content in tissue homogenates measured using Bradford protein assay (BioRad, Cat #5000006, Lot #64144266). Data analysis was performed using GraphPad Prism™ software. Statistical significance within the groups was determined by one-way Anova with Turkey's multiple comparison post-test (*p<0.01; **p<0.001; ***p<0.0001).

[6] = tested on: S. aureus MRSA strain NRS384 in humanized MSR1 mice; test: S. aureus IV disseminated infection mouse model, kidney burden; type: in vivo
Procedure: To test the efficacy of an anti-MSR1 Ab-antibiotic ncADC of the invention in vivo, an intravenous disseminated infection model was utilized. S. aureus MSRA strain NRS384 was grown overnight in trypic soy broth (TSB) and sub-cultured to mid-logarithmic phase. Bacteria were then washed twice with PBS and resuspended in PBS at a concentration of 1.2×10^8 cfu/mL. […] From one to three days post infection, mice were treated with 110 mg/kg vancomycin subcutaneously twice daily where indicated. […] Mice were monitored for weight loss and body conditioning score throughout the infection. At four days post infection, mice were euthanized and the S. aureus kidney burden was quantified by tissue homogenization followed by enumeration of colony forming units through serial dilution in PBS and plating onto trypicase soy agar plates.

[7] = joint homogenates, 2.95 mg/kg every 2 days
[8] = vancomycin treatment alone, limit of detection 250 cfu

C[C@@H]1C[C@H]2[C@@H]3CCC4=CC(=O)C=C[C@]4(C)[C@@]3(F)[C@@H](O)C[C@]2(C)[C@@]1(O)C(=O)CO [Dexamethasone, dexamethasone, reference compound]
Cytokine IL-6 [1]: 134.5 ± 18.2* ng/mL | Cytokine KC-GRO [1]: 19.9 ± 1.5 ng/mL | Cytokine TNF-α [1]: 0.63 ± 0.11* ng/mL | LPS-mediated expression of CD80, pMΦ Cells ([2]; hMSR1+F4/80+CD11b+ peritoneal macrophages): 77.69 ± 2.6 % relative to PBS/LPS-treatment | LPS-mediated expression of CD80, non-pMΦ Cells ([2]; hMSR1−F4/80−CD11b− cells): 99.6 ± 5.8 % relative to PBS/LPS-treatment | IL1beta released at max concentration tested ([3]; 24 hour treatment before LPS): 45.33 pg/mL | IL1beta released at max concentration tested ([3]; 48 hour treatment before LPS): 11.8 pg/mL | IL1beta released at max concentration tested ([3]; 72 hour treatment before LPS): 13.34 pg/mL | IC50 ([3]; THP-1, 24-hour time point): 0.42 nM | IC50 ([3]; THP-1, 48-hour time point): 0.794 nM | IC50 ([3]; THP-1, 72-hour time point): 0.543 nM

CCC[C@@H]1O[C@@H]2C[C@H]3[C@@H]4C[C@H](F)C5=CC(=O)C=C[C@]5(C)[C@@]4(F)[C@@H](O)C[C@]3(C)[C@]2(C(=O)CN)O1 [P4-1, (1S,2S,4R,6R,8S,9S,11S,12R,13S,19S)-8-(2-Aminoacetyl)-12,19-difluoro-11-hydroxy-9,13-dimethyl-6-propyl-5,7-dioxapentacyclo[10.8.0.0^2,9.0^4,8.0^13,18]icosa-14,17-dien-16-one]
Clinical Score (hMSR1/ApoE-KO mice [4]; 2.95 mg/kg, every 2 days d6-d12): 9.4 ± 2.46 | inhibition of CAIA (hMSR1/ApoE-KO mice [4]; dosed every day (P4-1ED), compared with H1H21234N-N297Q-P4-3 at 21 mg/kg): Comparable inhibition of CAIA | severity of CAIA (clinical scores) (hMSR1/ApoE-KO mice [4]; every other day): did not attenuate CAIA | pro-inflammatory cytokine levels in inflamed joints (hMSR1/ApoE-KO mice [5]; administered every other day): No effect | Cytokines IL-1β (hMSR1/ApoE-KO mice [5]; [7]): 20.6 ± 4.3 pg per mg of total protein | Cytokines IL-6 (hMSR1/ApoE-KO mice [5]; [7]): 131.4 ± 40.9 pg per mg of total protein | Cytokines KC-GRO (hMSR1/ApoE-KO mice [5]; [7]): 8.9 ± 9 pg per mg of total protein | Cytokines TNF-α (hMSR1/ApoE-KO mice [5]; [7]): 8.3 ± 1.9 pg per mg of total protein

CN[C@H](CC(C)C)C(=O)N[C@H]1C(=O)N[C@@H](CC(N)=O)C(=O)N[C@H]2C(=O)N[C@H]3C(=O)N[C@H](C(=O)N[C@H](C(=O)O)c4cc(O)cc(O)c4-c4cc3ccc4O)[C@H](O)c3ccc(c(Cl)c3)Oc3cc2cc(c3O[C@@H]2O[C@H](CO)[C@@H](O)[C@H](O)[C@H]2O[C@H]2C[C@](C)(N)[C@H](O)[C@H](C)O2)Oc2ccc(cc2Cl)[C@H]1O [vancomycin]
reduction of S. aureus kidney burden ([6]; 110 mg/kg s.c. twice daily, days 1 to 3 post infection, day 4): approximately 2 logs | mice with S. aureus levels below the LOD (in words) ([6]; vancomycin alone, 110 mg/kg s.c. twice daily): none of the mice had levels of S. aureus reduced below the limit of detection | # of mice with S. aureus below the limit of detection [6, 8]: 0/6 | Average cfu/kidney pair [6, 8]: 2.07E+06 cfu/kidney pair
